In patent US20240294572A1, “Antimicrobial Peptides” (priority 2021, published 2024):
Converted amounts (≈) assume the structure as drawn. Residues, ends and D or L forms follow the SMILES beside them. *: point of attachment. Octanoyl = CCCCCCCC(=O)*

Experiments:
S. aureus USA300 LAC = assay type: cell-based
Method: (§1) The antibacterial activity of peptides was evaluated using a standard broth microdilution protocol (Clinical Laboratories Standards Institute (CLSI): M07-A10. Methods for Dilution Antimicrobial Susceptibility Tests for Bacteria that grow aerobically; Approved Standard, Tenth Edition, 2015) with minor modifications as described (Mishra, et al. (2019) Proc. Natl. Acad. Sci., 116:13517-13522). In brief, peptides (10 μL per well) with 2-fold dilutions were made in 96-well polystyrene microplates. Subsequently, the logarithmic phase bacterial cultures (i.e., optical density at 600 nm ˜0.5) were diluted to 0.001 OD and aliquoted to 90 μL per well. The plates were incubated overnight at 37°° C. Bacterial controls were treated with water, and the wells containing only the TSB media were used as blank. Positive controls included the parent peptide LL-37 as well as KR12. Post incubation, the plates were read at 630 nm using ChroMate® 4300 Microplate Reader (Awareness Technology, FL).
To study the influence of medium conditions on the antimicrobial activity of peptides against S. aureus USA300, different pH, sodium chloride (NaCl), human sera were included into the antibacterial assays. Control experiments in TSB without any additions (pH 7.4) were set up in the same manner. In addition, antimicrobial activities of human LL-37, KR12, and C10-KR8d were compared in 10%, 50%, and 100% TSB as well as in TSB and MHB using E. coli ATCC 25922 and S. aureus USA300 LAC.

HaCaT cells = assay type: cell-based, human
Method: Peptides were assessed for potential cytotoxicity using HaCaT cells (Addexbio Technologies, CA). Briefly, cells were seeded at a density of 1×10^4 per well in a tissue culture 96-well plate. DMEM was supplemented with 10% fetal bovine serum (FBS) and incubated at 37° C. in a 5% CO2 atmosphere for 24 hours. Culture medium was aspirated and replaced with fresh serum free media. Cells were exposed to different concentrations of peptides for 1 hour at 37° C. in a 5% CO2 atmosphere. Post-incubation, the cells were washed and incubated with 100 μL of DMEM media containing 20 μL of MTS reagent for 2 hours at 37° C. Absorbance was read at 492 nm using a ChroMate® microplate reader (Awareness Technology, FL).

[1] = system: clinical strains of S. aureus, including USA200, USA400, Newman, and Mu50; assay type: cell-based
Method: as §1

S. aureus USA400 = assay type: cell-based
Method: as §1

S. aureus Mu50 = assay type: cell-based
Method: as §1

S. aureus Newman = assay type: cell-based
Method: as §1

S. aureus USA200 = assay type: cell-based
Method: as §1

[2] = system: human red blood cells (hRBCs); assay type: cell-based; details: red cells of human, 1 h
Method: Hemolytic assays of peptides were performed as described (Lakshmaiah, et al. (2020) Proc. Natl. Acad. Sci., 117:19446-19454). Briefly, human red blood cells (hRBCs) were obtained from UNMC Blood Bank. The cells were washed 3× with isotonic saline (0.9% NaCl) and diluted to 2% (v/v). Peptides at various concentrations were added to the 2% blood cells and incubated at 37° C. for 1 hour. Post-incubation, the plates were spun at 2000 rpm for 10 minutes; aliquots of the supernatant were carefully transferred to a fresh 96-well microplate. The amount of cells lysed is proportional to the hemoglobin released and was measured at 545 nm using a ChroMate® microplate reader (Awareness Technology, FL). The percent lysis was calculated by assuming 100% release when human blood cells were treated with 1% Triton™ X-100, and 0% release when incubated with PBS. The peptide concentration that caused 50% lysis of hRBCs is defined as HC50. The cell selectivity index (CSI) was calculated as the ratio between HC50 and the MIC of the corresponding peptide against MRSA.

[3] = system: Klebsiella pneumonia ATCC 13883; assay: Antibacterial broth microdilution MIC; assay type: cell-based
Method: as §1

- MIC (μM) SA (S. aureus USA300 LAC; USA300): 3.1 to 6.2 µM
- Minimal inhibitory concentration (MIC), pH = 6.8 (S. aureus USA300 LAC; USA300, pH 6.8): 12.5 μM
- MIC against clinical strains of S. aureus [1]: 1.6 to 6.2 µM
- HC50 [2]: 250 µM
- MIC (μM) KP [3]: 25 µM (≈ 37.9 µg/mL)
Compound: CCCCCCCC(=O)N[C@@H](CCCCN)C(=O)N[C@@H](CCCNC(=N)N)C(=O)N[C@H](C(=O)N[C@@H](Cc1c[nH]c2ccccc12)C(=O)N[C@@H](CCC(N)=O)C(=O)N[C@@H](CCCNC(=N)N)C(=O)N[C@H](C(=O)N[C@@H](CCCCN)C(=O)N[C@@H](CC(=O)O)C(=O)N[C@@H](Cc1ccccc1)C(N)=O)[C@@H](C)CC)[C@@H](C)CC [Peptide C8-KR10] (Octanoyl-KRIWQRIKDF-NH2)
- relative toxicity to HaCaT cells (HaCaT cells): slightly less toxic than C8-KR10d
- Minimal inhibitory concentration, USA400 (S. aureus USA400): 3.1 µM (≈ 4.7 µg/mL)
- Minimal inhibitory concentration, Mu50 (S. aureus Mu50): 6.2 µM (≈ 9.39 µg/mL)
- Minimal inhibitory concentration, Newman (S. aureus Newman): 6.2 µM (≈ 9.39 µg/mL)
- Minimal inhibitory concentration, USA200 (S. aureus USA200): 6.2 µM (≈ 9.39 µg/mL)
